Data published in US10752587B2, “Homobispiperidinyl derivatives as liver X receptor beta agonists, compositions and their use” (Merck Sharp & Dohme Corp., priority 2015, dated 2020).

Assays:
[1] = biological target: T1, glutathione-S-transferase (GST) tagged LXRbeta LBD (ligand binding domain) (Homo sapiens, UniProt P55055); assay: LanthaScreen TR-FRET Liver X Receptor Coactivator Assay, co-activator recruitment to LXRbeta LBD; type: biochemical; details: for Emax: efficacy at max dose, in relation to reference dual agonist T0901317, read-out: LXR beta Activity @ max dose (%); for EC50: potency (Inflection Point, IP), co-activator recruitment to LXRbeta LBD, in relation to T0901317, read-out: LXR beta IP
T1 construct: purchased Invitrogen pv4658.pps
T1 sequence (P55055 222-460 limits assumed): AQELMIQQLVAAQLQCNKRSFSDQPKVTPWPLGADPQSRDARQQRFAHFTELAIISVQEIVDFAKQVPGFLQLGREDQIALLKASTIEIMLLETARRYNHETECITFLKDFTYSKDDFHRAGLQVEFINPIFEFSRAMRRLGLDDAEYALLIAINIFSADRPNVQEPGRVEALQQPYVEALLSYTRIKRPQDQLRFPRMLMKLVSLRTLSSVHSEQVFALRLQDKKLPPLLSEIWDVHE
Summary of the method: (§1)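 GST-tagged LBD added to test compound, then fluorescein-labelled coactivator peptide plus terbium anti-GST antibody; incubated at room temperature, TR-FRET read. Potency given as inflection point and efficacy as Emax relative to reference dual agonist T0901317.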

[2] = biological target: T2, glutathione-S-transferase (GST) tagged LXRalpha LBD (ligand binding domain) (Homo sapiens, UniProt Q13133); assay: LanthaScreen TR-FRET Liver X Receptor Coactivator Assay, co-activator recruitment to LXRalpha LBD; type: biochemical; details: for Emax: efficacy at max dose, in relation to reference dual agonist T0901317, read-out: LXR alpha Activity @ max dose (%); for EC50: read-out: LXR alpha IP
T2 construct: purchased Invitrogen pv4655
T2 sequence (Q13133 209-447 limits assumed): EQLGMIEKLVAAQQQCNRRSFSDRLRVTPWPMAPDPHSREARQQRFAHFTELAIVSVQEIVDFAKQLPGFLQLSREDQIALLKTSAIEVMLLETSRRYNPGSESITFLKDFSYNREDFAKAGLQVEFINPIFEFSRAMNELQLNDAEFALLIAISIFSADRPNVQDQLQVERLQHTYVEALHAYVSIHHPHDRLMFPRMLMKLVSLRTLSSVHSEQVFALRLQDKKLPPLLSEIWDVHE
Summary of the method: as §1

[3] = potency (Inflection Point, IP), co-activator recruitment to LXRalpha LBD, in relation to T0901317

Row | SMILES | Emax [1] [%] | EC50 [1] [nM] | Emax [2] [%] | LXR alpha IP (nM) [2, 3] | EC50 [2, 3] [nM]
1 | COc1cccc([C@@](O)(C(=O)N2CCC(C)(CC3CCN(c4ccc(C(=O)N(C)C)c(Cl)n4)CC3)CC2)C(F)(F)F)c1 [Example 7-51, 2-chloro-N,N-dimethyl-6-[4-({4-methyl-1[(2R)-3,3,3-trifluoro-2-hydroxy-2-(3-methoxyphenyl)propanoyl]piperidin-4-yl}methyl)piperidin-1-yl]pyridine-3-carboxamide] | 35 | 5 | 4 | NO IP | 
2 | COc1cccc([C@@](O)(C(=O)N2CCC(CC3CCN(c4ccc(C(=O)N(C)C)c(Cl)n4)CC3)CC2)C(F)(F)F)c1 [Example 7-52, 2-chloro-N,N-dimethyl-6-[4-({1-[(2R)-3,3,3-trifluoro-2-hydroxy-2-(3-methoxyphenyl)propanoyl]piperidin-4-yl}methyl)piperidin-1-yl]pyridine-3-carboxamide] | 69 | 5 | 14 |  | 120
3 | CN(C)C(=O)c1ccc(N2CCC(CC3CCN(C(=O)C4(c5ccccc5Cl)CC4)CC3)CC2)nc1Cl [Example 7-53, 2-chloro-6-{4-[(1-{[1-(2-chlorophenyl)cyclopropyl]carbonyl}piperidin-4-yl)methyl]piperidin-1-yl}-N,N-dimethylpyridine-3-carboxamide] | 118 | 31 | 45 |  | 571
4 | CN(C)C(=O)c1ccc(N2CCC(CC3CCN(C(=O)C(O)(c4cccc(C(F)(F)F)c4)C(F)(F)F)CC3)CC2)nc1Cl (stereo not shown) [Example 7-54, 2-chloro-N,N-dimethyl-6-{4-[(1-{3,3,3-trifluoro-2-hydroxy-2-[3-(trifluoromethyl)phenyl]propanoyl}piperidin-4-yl)methyl]piperidin-1-yl}pyridine-3-carboxamide] | 77 | 10 | 21 |  | 356
5 | Cc1cccc(C(O)(C(=O)N2CCC(CC3CCN(c4ccc(C(=O)N(C)C)c(Cl)n4)CC3)CC2)C(F)(F)F)c1 (stereo not shown) [Example 7-55, 2-chloro-N,N-dimethyl-6-[4-({1-[3,3,3-trifluoro-2-hydroxy-2-(3-methylphenyl)propanoyl]piperidin-4-yl}methyl)piperidin-1-yl] pyridine-3-carboxamide] | 59 | 5 | 9 |  | 141
6 | Cc1ccccc1C1(C(=O)N2CCC(CC3CCN(c4ccc(C(=O)N(C)C)c(Cl)n4)CC3)CC2)CCC1 [Example 7-56, 2-chloro-N,N-dimethyl-6-{4-[(1-{[1-(2-methylphenyl)cyclobutyl]carbonyl}piperidin-4-yl)methyl]piperidin-1-yl}pyridine-3-carboxamide] | 114 | 20 | 37 |  | 429
7 | COc1ccccc1C1(C(=O)N2CCC(CC3CCN(c4ccc(C(=O)N(C)C)c(Cl)n4)CC3)CC2)CCC1 [Example 7-57, 2-chloro-6-{4-[(1-{[1-(2-methoxyphenyl)cyclobutyl]carbonyl}piperidin-4-yl)methyl]piperidin-1-yl}-N,N-dimethylpyridine-3-carboxamide] | 123 | 16 | 39 |  | 438
8 | COc1cccc(C(O)(C(=O)N2CCC(CC3CCN(c4ccc(C(=O)N(C)C)c(Cl)n4)CC3)CC2)C(F)(F)C(F)(F)F)c1 (stereo not shown) [Example 7-58, 2-chloro-N,N-dimethyl-6-[4-({1-[3,3,4,4,4-pentafluoro-2-hydroxy-2-(3-methoxyphenyl)butanoyl]piperidin-4-yl}methyl)piperidin-1-yl]pyridine-3-carboxamide] | 80 | 11 | 19 |  | 274
9 | CC(C)C(O)(C(=O)N1CCC(CC2CCN(c3ccc(C(=O)N(C)C)c(Cl)n3)CC2)CC1)C(F)(F)F (stereo not shown) [Example 7-59, 2-chloro-6-[4-({1-[2-hydroxy-3-methyl-2-(trifluoromethyl)butanoyl]piperidin-4-yl}methyl)piperidin-1-yl]-N,N-dimethylpyridine-3-carboxamide] | 107 | 293 | 39 |  | 2680
10 | CN(C)C(=O)c1ccc(N2CCC(CC3CCN(C(=O)[C@](O)(c4ccccc4)C(F)(F)C(F)(F)F)CC3)CC2)nc1Cl [Example 7-60, 2-chloro-N,N-dimethyl-6-[4-({1-[(2R)-3,3,4,4,4-pentafluoro-2-hydroxy-2-phenylbutanoyl]piperidin-4-yl}methyl)piperidin-1-yl]pyridine-3-carboxamide] | 153 | 7 | 60 |  | 148
11 | CN(C)C(=O)c1ccc(N2CCC(CC3CCN(C(=O)C(C)(C)c4ccccc4)CC3)CC2)nc1Cl [Example 7-61, 2-chloro-N,N-dimethyl-6-(4-{[1-(2-methyl-2-phenylpropanoyl)piperidin-4-yl]methyl}piperidin-1-yl)pyridine-3-carboxamide] | 68 | 45 | 21 |  | 817
12 | CN(C)C(=O)c1ccc(N2CCC(CC3CCN(C(=O)[C@@](O)(c4ccccc4)C(F)(F)F)CC3)CC2)nc1Cl [Example 7-62, 2-chloro-N,N-dimethyl-6-[4-({1-[(2S)-3,3,3-trifluoro-2-hydroxy-2-phenylpropanoyl]piperidin-4-yl}methyl)piperidin-1-yl]pyridine-3-carboxamide] | 119 | 82 | 31 |  | 1350
13 | CN(C)C(=O)c1ccc(N2CCC(CC3CCN(C(=O)[C@](O)(c4ccccc4)C(F)(F)F)CC3)CC2)nc1Cl [Example 7-63, 2-chloro-N,N-dimethyl-6-[4-({1-[(2R)-3,3,3-trifluoro-2-hydroxy-2-phenylpropanoyl]piperidin-4-yl}methyl)piperidin-1-yl]pyridine-3-carboxamide] | 102 | 6 | 39 |  | 158
14 | CN(C)C(=O)c1ccc(N2CCC(CC3CCN(C(=O)C4(c5ccccc5)CCCC4)CC3)CC2)nc1Cl [Example 7-64, 2-chloro-N,N-dimethyl-6-[4-({1-[(1-phenylcyclopentyl)carbonyl]piperidin-4-yl}methyl)piperidin-1-yl]pyridine-3-carboxamide] | 80 | 57 | 19 |  | 663
15 | CN(C)C(=O)c1ccc(N2CCC(CC3CCN(C(=O)C4(c5ccccc5F)CCCC4)CC3)CC2)nc1Cl [Example 7-65, 2-chloro-6-{4-[(1-{[1-(2-fluorophenyl)cyclopentyl]carbonyl}piperidin-4-yl)methyl]piperidin-1-yl}-N,N-dimethylpyridine-3-carboxamide] | 95 | 48 | 29 |  | 658
16 | CN(C)C(=O)c1ccc(N2CCC(CC3CCN(C(=O)C(O)(c4cccnc4)C(F)(F)F)CC3)CC2)nc1Cl (stereo not shown) [Example 7-66, 2-chloro-N,N-dimethyl-6-(4-{[1-(3,3,3-trifuoro-2-hydroxy-2-pyridin-3-ylpropanoyl)piperidin-4-yl]methyl}piperidin-1-yl)pyridine-3-carboxamide] | 108 | 83 | 48 |  | 1590
